{"source": "patent US20100093653A1", "about": "“Use of 1,6-Bis [3-(3-carboxymethylphenyl)-4-(2-alpha-D-mannopyranosyl-oxy)-phenyl] hexane for the preparation of cosmetic compositions” (Revotar Biopharmaceuticals AG, priority 2006, published 2010)", "key": {"[1]": {"system": "wrinkles of crow's feet", "assay": "Anti-wrinkle efficacy, crow's feet skin replicas with image analysis", "assay_type": "in vivo, healthy subjects", "conditions": "microemulsion of example 6, twice a day for 28 days; treated vs untreated crow's feet; all subjects", "excerpt": "By using the microemulsion as described in example 6, the anti-wrinkle effect of FORM 1 of 1,6-Bis [3-(3-carboxymethylphenyl)-4-(2-α-D-mannopyranosyloxy)-phenyl]hexane (compound of formula (I)) is investigated according to methods known to the skilled person. 40 healthy subjects aged between 34 and 59 years, comprising 35 women and 5 men are selected. The formulation containing FORM 1 of the compound of formula (I), is applied twice a day, in the morning and in the evening, to one temporal zone of the face (crow's feet) for 28 days. The other zone remains untreated and serves as a control. An impression (skin replicas) is made from the control and treated zone at time 0 and after 28 days of treatment using SILFO impression material (Flexico, England)."}, "[2]": {"system": "isolated perfused porcine fore limb", "assay": "isolated perfused porcine fore limb transdermal penetration assay", "assay_type": "in vitro ADME", "conditions": "microemulsion of example 6; 5 h application time; LC/MS", "protocol": "By using the microemulsion as described in example 6 skin penetration studies of FORM 1 of 1,6-Bis [3-(3-carboxymethylphenyl)-4-(2-α-D-mannopyranosyloxy)-phenyl]hexane employing an isolated perfused porcine fore limb transdermal penetration assay using pig porcine is performed according to the methods known to the skilled person. The isolated perfused porcine fore limb is an assay system, which retains intact anatomy and skin, muscle, blood vessel and bone morphology. The organ is kept vitalized by perfusion with a blood-based perfusion medium for up to 6 h. This system allows monitoring of transdermal, resorption, penetration or permeation of pharmaceuticals and cosmetics. 3 application sites are choosen and surrounded by Leukosilk. On each of these areas 10 μl of microemulsion are applied with a pipette and distributed with the pipette tip.\nFor three additional application sites, the cotton pads of three Hill Top chambers in total, are soaked and saturated with microemulsion and applied to skin. After 5 h application time Hill Top chambers are removed and the unabsorbed microemulsion from the free sites is removed with a dry swab each. 20 Tesa strips are collected from each of the six applications sites. […] Swabs, strips, skin biopsys are analysed for content of FORM 1 of 1,6-Bis [3-(3-carboxymethylphenyl)-4-(2-α-D-mannopyranosyloxy)-phenyl]hexane with LC/MS. […]"}, "[3]": {"system": "photoageing", "assay": "Protective effect against photoageing, chronic solar-simulated UV radiation", "assay_type": "in vivo, hairless mice", "conditions": "microemulsion of example 6, topical twice daily during 30 weeks UV-exposure; histology", "excerpt": "By using the microemulsion as described in example 6, the protective effect of FORM 1 of 1,6-Bis [3-(3-carboxymethylphenyl)-4-(2-α-D-mannopyranosyloxy)-phenyl]hexane (compound of formula (I)) against photoageing (hairless mice) is investigated according to methods known to the skilled person. Hairless mice are exposed to chronic solar-simulated UV radiation for 30 weeks."}, "[4]": {"system": "porcine skin", "assay": "Franz diffusion cell penetration assay using porcine skin", "assay_type": "in vitro ADME", "conditions": "microemulsion of example 6; 10.4 μl on 1000 μm porcine skin; 8 h; 37° C.; LC/MS", "protocol": "By using the microemulsion as described in example 6, skin penetration studies of FORM 1 of 1,6-Bis [3-(3-carboxymethylphenyl)-4-(2-α-D-mannopyranosyloxy)-phenyl]hexane in employing a Franz diffusion cell penetration assay using porcine skin is performed according to the methods known to the skilled person. Porcine skin samples (6 in total, 2 from each animal, 3 female animals in total), 1000 μm thick, with the stratum corneum facing up are placed onto the lower part of a Franz diffusion cell. The cell is rinsed with medium tempered to 37° C. to prevent the skin from drying out and the system is equilibrated for 30 minutes. 10.4 μl of microemulsion as described in example 6 is applied to the dry upper side of the epidermis using a pipette and the microemulsion is distributed with an inoculation loop. Medium is collected every hour.\nAfter 8 h the experiment is finished. The skin is punched out and the surface of the skin is swabed to removed excess microemulsion. The dry surface is stripped 20 times using Tesafilm. Swabs, strips, medium and skin samples are analysed for content of FORM 1 of 1,6-Bis [3-(3-carboxymethylphenyl)-4-(2-α-D-mannopyranosyloxy)-phenyl]hexane by LC/MS. On average 4% of the applied amount of FORM 1 of 1,6-Bis [3-(3-carboxymethylphenyl)-4-(2-α-D-mannopyranosyloxy)-phenyl]hexane in the microemulsion as described in example 6 penetrates into skin."}, "[5]": {"system": "skin elasticity of the back", "assay": "Model of hormone induced skin ageing (menopause model, bilateral ovarectomy)", "assay_type": "in vivo, female hairless mice", "conditions": "microemulsion of example 6 onto the back twice daily for two months after ovary removal; vehicle control animals showed the reduction", "excerpt": "By using the microemulsion as described in example 6, the effect of FORM 1 of 1,6-Bis [3-(3-carboxymethylphenyl)-4-(2-α-D-mannopyranosyloxy)-phenyl]hexane (compound of formula (I)) on hormone induced skin ageing is investigated employing a menopause model according to methods known to the skilled person. Five-week old female hairless mice are subjected to bilateral ovarectomy, and used as an animal model of menopause. For two months from immediately after ovary extraction, the formulation containing FORM 1 of compound of formula (I) is applied onto the back twice daily. As a control, the formulation without FORM 1 of compound of formula (I) is applied in a similar protocol (vehicle control). […] Two months after ovary removal, skin elasticity of the back is measured using a Cutometer (COURAGE KHAZAKSA)."}, "[6]": {"system": "photoageing of human skin", "assay": "Protective effect against photoaging of human skin, solar simulated UV radiation, immunohistology of biopsies", "assay_type": "in vivo", "conditions": "microemulsion of example 6, topical before 2 MED UV; buttock skin biopsies 24 hours after exposition; vehicle control skin showed it", "excerpt": "By using the microemulsion as described in example 6, the protective effect of FORM 1 of 1,6-Bis [3-(3-carboxymethylphenyl)-4-(2-α-D-mannopyranosyloxy)-phenyl]hexane (compound of formula (I)) against photoageing of human skin is investigated according to methods known to the skilled person. Two areas of buttock skin (each approximately 2×2 cm) of 10 healthy male white volunteers are exposed to erythematogenic doses (2 MED) of solar simulated UV radiation. Before radiation one area is topically treated with the formulation containing FORM 1 of compound of formula (I), the other with the formulation without FORM 1 of compound of formula (I) (vehicle control). 24 hours after exposition, biopsies are taken from both areas and as control from an area that is not exposed to radiation."}}}
{"smiles": "O=C(O)Cc1cccc(-c2cc(CCCCCCc3ccc(O[C@H]4O[C@H](CO)[C@@H](O)[C@H](O)[C@@H]4O)c(-c4cccc(CC(=O)O)c4)c3)ccc2O[C@H]2O[C@H](CO)[C@@H](O)[C@H](O)[C@@H]2O)c1", "note": "[FORM 1 of compound of formula (I), 1,6-Bis [3-(3-carboxymethylphenyl)-4-(2-α-D-mannopyranosyloxy)-phenyl]hexane]", "values": [{"measurement": "depth of wrinkles", "setting": "[1]", "value": "significantly reduces"}, {"measurement": "length of wrinkles", "setting": "[1]", "value": "significantly reduces"}, {"measurement": "number of wrinkles", "setting": "[1]", "value": "significantly reduces"}, {"measurement": "applied amount that penetrates into skin (on average)", "setting": "[2]", "value": 5, "unit": "%"}, {"measurement": "degraded dermal collagen", "setting": "[3]", "value": "protected significantly"}, {"measurement": "deposition of glycosamisnoglycans in the lower dermis", "setting": "[3]", "value": "protected significantly"}, {"measurement": "dermal mast cell number", "setting": "[3]", "value": "protected significantly"}, {"measurement": "epidermal hyperplasia", "setting": "[3]", "value": "protected significantly"}, {"measurement": "focal elastotic deposits", "setting": "[3]", "value": "protected significantly"}, {"measurement": "applied amount that penetrates into skin (on average)", "setting": "[4]", "value": 4, "unit": "%"}, {"measurement": "significantly reduced skin elasticity (Cutometer) as compared to normal animals", "setting": "[5]", "value": "This was not the case"}, {"measurement": "matrix-metallo-proteinase-1 (MMP-1)", "setting": "[6]", "value": "This is not the case"}, {"measurement": "matrix-metallo-proteinase-9 (MMP-9)", "setting": "[6]", "value": "This is not the case"}, {"measurement": "strong infiltration of neutrophils", "setting": "[6]", "value": "This is not the case"}]}
